The NIST ThermoML archive (doi:10.1021/je0340248)
± gives the expanded uncertainty stated by the source.

Details: 101.33 kPa, Liquid

SMILES	mass density (298.15 K)	speed of sound (298.15 K)	viscosity (298.15 K)	mass density (303.15 K)	mass density (308.15 K)	speed of sound (308.15 K)	viscosity (308.15 K)	mass density (313.15 K)
CCCCOC(C)=O [butyl ethanoate]	876.19 ± 0.94 kg/m3	1190 ± 2 m/s	0.674 ± 0.012 mPa·s	871.27 ± 0.96 kg/m3	865.43 ± 0.98 kg/m3	1150 ± 2 m/s	0.594 ± 0.011 mPa·s	860.48 ± 1 kg/m3
OCCOCCO [diethylene glycol]	1113.51 ± 0.32 kg/m3	1580 ± 2 m/s	30.01 ± 0.42 mPa·s	1109.56 ± 0.31 kg/m3	1106.22 ± 0.3 kg/m3	1550 ± 2 m/s	16.97 ± 0.33 mPa·s	1103.02 ± 0.3 kg/m3
CCOC(C)=O [ethyl acetate]	894.55 ± 0.88 kg/m3	1138 ± 2 m/s	0.428 ± 0.008 mPa·s	888.48 ± 0.9 kg/m3	882.5 ± 0.92 kg/m3	1095 ± 2 m/s	0.387 ± 0.008 mPa·s	875.97 ± 0.94 kg/m3
COC(C)=O [methyl ethanoate]	926.8 ± 0.78 kg/m3	1150 ± 2 m/s	0.384 ± 0.008 mPa·s	919.7 ± 0.8 kg/m3	915.22 ± 0.81 kg/m3	1103 ± 2 m/s	0.351 ± 0.007 mPa·s	908.33 ± 0.84 kg/m3
OCCOCCOCCO [triethylene glycol]	1119.59 ± 0.75 kg/m3	1612 ± 2 m/s	34.4 ± 0.46 mPa·s	1115.88 ± 0.69 kg/m3	1111.96 ± 0.63 kg/m3	1586 ± 2 m/s	21.31 ± 0.35 mPa·s	1109.53 ± 0.6 kg/m3
